How the values were obtained:
Assay in all cases: relative viability (nuclei count vs DMSO), 5 days (fraction); higher = more cells survive
BX 795 + Olaparib = compound: O=C(NCCCNc1nc(Nc2cccc(NC(=O)N3CCCC3)c2)ncc1I)c1cccs1 [BX 795] + O=C(c1cc(Cc2n[nH]c(=O)c3ccccc23)ccc1F)N1CCN(C(=O)C2CC2)CC1 [Olaparib] (partner 8 µM)
Method in brief: (§1)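 Lung cancer cell lines in 1536-well plates got either a single drug or a fixed anchor-drug dose together with five library-drug doses (not always all listed) in √10 steps, by pin tool, on the day after seeding. Nuclei were counted after 5 days, and relative viability is the treated-to-vehicle ratio of nuclei counts. Values are medians of duplicate plates.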

BX 795 + Tozasertib = compound: O=C(NCCCNc1nc(Nc2cccc(NC(=O)N3CCCC3)c2)ncc1I)c1cccs1 [BX 795] + Cc1cc(Nc2cc(N3CCN(C)CC3)nc(Sc3ccc(NC(=O)C4CC4)cc3)n2)n[nH]1 [Tozasertib] (partner 0.1 µM)
Method in brief: as §1

BX 795 + Phenformin = compound: O=C(NCCCNc1nc(Nc2cccc(NC(=O)N3CCCC3)c2)ncc1I)c1cccs1 [BX 795] + N=C(N)NC(=N)NCCc1ccccc1 [Phenformin] (partner 250 µM)
Method in brief: as §1

BX 795 + Trametinib = compound: O=C(NCCCNc1nc(Nc2cccc(NC(=O)N3CCCC3)c2)ncc1I)c1cccs1 [BX 795] + CC(=O)Nc1cccc(-n2c(=O)n(C3CC3)c(=O)c3c(Nc4ccc(I)cc4F)n(C)c(=O)c(C)c32)c1 [Trametinib] (partner 0.02 µM)
Method in brief: as §1

BX 795 + Alpelisib = compound: O=C(NCCCNc1nc(Nc2cccc(NC(=O)N3CCCC3)c2)ncc1I)c1cccs1 [BX 795] + Cc1nc(NC(=O)N2CCC[C@H]2C(N)=O)sc1-c1ccnc(C(C)(C)C(F)(F)F)c1 [Alpelisib] (partner 2 µM)
Method in brief: as §1

| Cell Line | relative viability (BX 795 + Olaparib; first compound 0.04 µM) | relative viability (BX 795 + Olaparib; first compound 0.1265 µM) | relative viability (BX 795 + Olaparib; first compound 0.4 µM) | relative viability (BX 795 + Olaparib; first compound 1.265 µM) | relative viability (BX 795 + Tozasertib; first compound 0.04 µM) | relative viability (BX 795 + Tozasertib; first compound 0.1265 µM) | relative viability (BX 795 + Tozasertib; first compound 0.4 µM) | relative viability (BX 795 + Tozasertib; first compound 1.265 µM) | relative viability (BX 795 + Phenformin; first compound 0.04 µM) | relative viability (BX 795 + Phenformin; first compound 0.1265 µM) | relative viability (BX 795 + Phenformin; first compound 0.4 µM) | relative viability (BX 795 + Phenformin; first compound 1.265 µM) | relative viability (BX 795 + Trametinib; first compound 0.04 µM) | relative viability (BX 795 + Trametinib; first compound 0.1265 µM) | relative viability (BX 795 + Trametinib; first compound 0.4 µM) | relative viability (BX 795 + Trametinib; first compound 1.265 µM) | relative viability (BX 795 + Alpelisib; first compound 0.04 µM) | relative viability (BX 795 + Alpelisib; first compound 0.1265 µM) | relative viability (BX 795 + Alpelisib; first compound 0.4 µM) | relative viability (BX 795 + Alpelisib; first compound 1.265 µM) |
| --- | --- | --- | --- | --- | --- | --- | --- | --- | --- | --- | --- | --- | --- | --- | --- | --- | --- | --- | --- | --- |
| BEN | 1.19 | 1.34 | 0.797 | 1.04 | 0.606 | 0.447 | 0.523 | 0.44 | 0.235 | 0.278 | 0.245 | 0.21 | 1.12 | 1.12 | 0.933 | 1.13 | 1.06 | 1.16 | 1.06 | 0.995 |
| NCI-H1993 | 0.847 | 0.92 | 1.16 | 0.92 | 0.582 | 0.553 | 0.527 | 0.55 | 0.492 | 0.499 | 0.485 | 0.523 | 0.554 | 0.439 | 0.504 | 0.561 | 0.583 | 0.655 | 0.641 | 0.689 |
| EKVX | 0.833 | 0.783 | 0.666 | 0.807 | 0.38 | 0.471 | 0.358 | 0.331 | 0.225 | 0.247 | 0.21 | 0.217 | 0.358 | 0.298 | 0.382 | 0.351 | 0.841 | 0.933 | 0.808 | 0.837 |
| A-427 | 0.826 | 0.68 | 0.672 | 0.641 | 0.227 | 0.148 | 0.179 | 0.136 | 0.284 | 0.236 | 0.277 | 0.177 | 0.757 | 0.733 | 0.72 | 0.625 | 1.1 | 1.1 | 1.1 | 1.03 |
| A549 | 0.495 | 0.379 | 0.279 | 0.219 |  |  |  |  | 0.23 | 0.15 | 0.271 | 0.112 |  |  |  |  | 0.761 | 0.731 | 0.6 | 0.267 |
| COR-L23 | 0.328 | 0.311 | 0.247 | 0.166 | 0.201 | 0.186 | 0.168 | 0.111 | 0.391 | 0.411 | 0.431 | 0.234 | 0.622 | 0.628 | 0.509 | 0.344 | 0.882 | 0.838 | 0.98 | 0.356 |
| NCI-H1437 | 0.632 | 0.664 | 0.651 | 0.483 | 0.378 | 0.395 | 0.429 | 0.413 | 0.279 | 0.336 | 0.328 | 0.257 | 0.496 | 0.605 | 0.516 | 0.538 | 1.02 | 1.06 | 1.01 | 0.863 |
| PC-3 [JPC-3] | 1.16 |  | 1.04 | 1.09 | 0.931 | 0.851 | 0.881 | 0.872 | 0.484 | 0.439 | 0.492 | 0.483 | 0.723 |  | 0.631 | 0.729 | 1.02 | 1.03 | 1.15 | 1.02 |
| LCLC-97TM1 | 0.507 | 0.404 | 0.409 | 0.266 | 0.356 | 0.24 | 0.305 | 0.232 | 0.495 | 0.444 | 0.457 | 0.348 | 0.203 | 0.19 | 0.179 | 0.166 | 0.236 | 0.229 | 0.393 | 0.155 |
| NCI-H1793 | 0.972 | 0.856 | 0.928 | 0.804 | 0.372 | 0.326 | 0.375 | 0.213 | 0.358 | 0.35 | 0.366 | 0.289 | 0.404 | 0.403 | 0.526 | 0.344 | 0.675 | 0.775 | 0.647 | 0.613 |
| HCC-15 | 0.857 | 0.73 | 1.04 | 0.499 | 0.444 | 0.359 | 0.482 | 0.246 | 0.423 | 0.485 | 0.482 | 0.283 | 0.389 | 0.381 | 0.505 | 0.355 | 0.865 | 0.877 | 0.959 | 0.665 |
| SK-LU-1 | 0.484 | 0.519 | 0.31 | 0.413 | 0.312 | 0.356 |  | 0.211 | 0.495 | 0.608 |  | 0.316 | 0.473 | 0.674 | 0.396 | 0.469 | 1.03 | 0.946 | 0.672 | 0.479 |
| NCI-H358 | 0.724 | 0.709 | 0.486 | 0.368 | 0.1 | 0.107 | 0.0928 | 0.098 | 0.296 | 0.319 | 0.257 | 0.117 | 0.158 | 0.124 | 0.111 | 0.114 | 0.95 | 0.642 | 0.822 | 0.281 |
| NCI-H1975 | 0.811 | 0.961 | 0.632 | 0.586 | 0.707 | 0.794 | 0.623 | 0.234 | 0.409 | 0.442 | 0.422 | 0.317 | 0.383 | 0.358 | 0.316 | 0.316 | 0.6 | 0.671 | 0.626 | 0.406 |
| NCI-H1666 | 0.939 | 0.707 | 0.938 | 0.726 | 0.642 | 0.69 | 0.599 | 0.403 | 0.362 | 0.568 | 0.483 | 0.49 | 0.856 | 0.884 | 0.974 | 0.802 | 1.07 | 1.11 | 1.01 | 0.799 |
| H3255 | 0.624 | 0.608 | 0.501 | 0.492 | 0.716 | 0.605 | 0.773 | 0.55 | 0.371 | 0.354 | 0.406 | 0.363 | 0.616 | 0.666 | 0.655 | 0.565 | 0.873 | 0.845 | 0.759 | 0.584 |
